Measurements taken from patent publication US7371766B2, “Curcumin analogs with anti-tumor and anti-angiogenic properties” (Emory University, priority 1999, dated 2008).
Read-outs that look alike come from different tables or passages of the source.

How the values were obtained:
[1] = tested on: CCRF-CEM; assay: cells; conditions: Homo sapiens, 48 h, read-out: Median Growth Inhibitory Concentration (GI50)
[2] = tested on: MOLT-4; assay: cells; conditions: Homo sapiens, MOLT-4, 48 h
[3] = tested on: SR; assay: cells; conditions: Homo sapiens, 48 h
[4] = tested on: A549; assay: cells; conditions: Homo sapiens, A549, 48 h
[5] = tested on: HOP-62; assay: cells; conditions: Homo sapiens, HOP-62, 48 h, read-out: Median Growth Inhibitory Concentration (GI50)
[6] = tested on: NCI-H23; assay: cells; conditions: Homo sapiens, NCI-H23, 48 h
[7] = tested on: NCI-H522; assay: cells; conditions: Homo sapiens, NCI-H522, 48 h
[8] = tested on: HCC-2998; assay: cells; conditions: Homo sapiens, HCC 2998, 48 h
[9] = tested on: HCT-116; assay: cells; conditions: Homo sapiens, HCT-116, 48 h
[10] = tested on: HCT-15; assay: cells; conditions: Homo sapiens, HCT-15, 48 h
[11] = tested on: HT29; assay: cells; conditions: Homo sapiens, HT-29, 48 h
[12] = tested on: SF-295; assay: cells; conditions: Homo sapiens, SF-295, 48 h
[13] = tested on: SNB-19; assay: cells; conditions: Homo sapiens, SNB-19, 48 h
[14] = tested on: SNB-75; assay: cells; conditions: Homo sapiens, SNB-75, 48 h
[15] = tested on: MALME-3M; assay: cells; conditions: Homo sapiens, 48 h
[16] = tested on: SK-MEL-2; assay: cells; conditions: Homo sapiens, SK-MEL-2, 48 h
[17] = tested on: UACC-257; assay: cells; conditions: Homo sapiens, UACC-257, 48 h
[18] = tested on: OVCAR-3; assay: cells; conditions: Homo sapiens, OVCAR-3, 48 h
[19] = tested on: OVCAR-5; assay: cells; conditions: Homo sapiens, OVCAR-5, 48 h
[20] = tested on: OVCAR-8; assay: cells; conditions: Homo sapiens, OVCAR-8, 48 h
[21] = tested on: SK-OV-3; assay: cells; conditions: Homo sapiens, SK-OV-3, 48 h
[22] = tested on: TK-10; assay: cells; conditions: Homo sapiens, TK-10, 48 h
[23] = tested on: PC-3; assay: cells; conditions: Homo sapiens, PC-3, 48 h
[24] = tested on: DU-145; assay: cells; conditions: Homo sapiens, DU-145, 48 h
[25] = tested on: MDA-MB-435; assay: cells; conditions: Homo sapiens, MDA-MB-435, 48 h
[26] = tested on: MDA-N; assay: cells; conditions: Homo sapiens, 48 h
[27] = tested on: BT-549; assay: cells; conditions: Homo sapiens, BT-549, 48 h
[28] = tested on: RPMI-7951 human melanoma; assay: Neutral Red Assay, cell viability, RPMI-7951; conditions: for viability at 5 µM / viability at 20 µM: Homo sapiens; for Neutral Red Uptake, % / Cell Viability: RPMI-7951; for Neutral Red Uptake, %: 72 hours; for Cell Viability: DMSO = 100
[29] = tested on: Sixty human tumor cell lines; conditions: for GI50: read-out: Median Growth Inhibitory Concentration (GI50), Mean, Mean over the NCI cell lines
[30] = read-out: Median Growth Inhibitory Concentration (GI50)
[31] = read-out: Median Lethal Concentration (LC50)
[32] = RPMI-7951, 72 h, read-out: Neutral Red Uptake, %
[33] = RPMI-7951, read-out: Cell Viability
[34] = NCI Anti-Tumor Screen, several cell types

In the case of `COc1cc(/C=C/C(=O)CC(=O)/C=C/c2ccc(O)c(OC)c2)ccc1O` [Curcumin], the GI50 [1] was 3.2 µM, the GI50 [2, 30] was 5 µM and the CC50 [2, 31] was 79.4 µM. The GI50 [3, 30] was 3.2 µM, the CC50 [3, 31] was 79.4 µM and the GI50 [4, 30] was 12.6 µM. The CC50 [4, 31] was 79.4 µM, the GI50 [5] was 4 µM and the GI50 [6, 30] was 5 µM. For the same compound, the CC50 [6, 31] was less than 100 µM, the GI50 [7, 30] was 5 µM and the CC50 [7, 31] was 79.4 µM. For the same compound, the GI50 [8, 30] was 3.2 µM, the CC50 [8, 31] was 31.6 µM and the GI50 [9, 30] was 3.2 µM. It also gave a CC50 [9, 31] of 50.1 µM, a GI50 [10, 30] of 4 µM and a CC50 [10, 31] of 79.4 µM. It also gave a GI50 [11, 30] of 5 µM, a CC50 [11, 31] of less than 100 µM and a GI50 [12, 30] of 7.9 µM. For the same compound, the CC50 [12, 31] was 50.1 µM, the GI50 [13, 30] was 7.9 µM and the CC50 [13, 31] was 63.1 µM. The GI50 [14, 30] was 6.3 µM, the CC50 [14, 31] was 50.1 µM and the GI50 [15, 30] was 12.6 µM. It also gave a CC50 [15, 31] of 50.1 µM, a GI50 [16, 30] of 15.8 µM and a CC50 [16, 31] of 79.4 µM. For the same compound, the GI50 [17, 30] was 12.6 µM, the CC50 [17, 31] was 50.1 µM and the GI50 [18, 30] was 6.3 µM. For the same compound, the CC50 [18, 31] was 63.1 µM, the GI50 [19, 30] was 15.8 µM and the CC50 [19, 31] was 79.4 µM. It also gave a GI50 [20, 30] of 7.9 µM, a CC50 [20, 31] of 79.4 µM and a GI50 [21, 30] of 7.9 µM. It also gave a CC50 [21, 31] of 50.1 µM, a GI50 [22, 30] of 15.8 µM and a CC50 [22, 31] of 63.1 µM. For the same compound, the GI50 [23, 30] was 7.9 µM, the CC50 [23, 31] was 63.1 µM and the GI50 [24, 30] was 15.8 µM. For the same compound, the CC50 [24, 31] was 63.1 µM, the GI50 [25, 30] was 3.2 µM and the CC50 [25, 31] was 39.8 µM. For the same compound, the GI50 [26, 30] was 2.5 µM, the CC50 [26, 31] was 31.6 µM and the GI50 [27, 30] was 5 µM. It also gave a CC50 [27, 31] of 39.8 µM, a viability at 5 µM [28, 32] of 100% and a viability at 20 µM [28, 32] of 14%. It also gave a viability at 5 µM [28, 33] of 105% and a viability at 20 µM [28, 33] of 47%.

With `C(=C\c1ccccc1)/S/C=C/c1ccccc1` [EF15] the GI50 ([29]; 48 hours) was 75.9 µM, the “Neutral Red Uptake, %” value ([28]; 5 μM) was 100 % of control and the “Cell Viability” value ([28]; 5 μM) was 112%. The “Neutral Red Uptake, %” value ([28]; 20 μM) was 100 % of control and the “Cell Viability” value ([28]; 20 μM) was 111%.

For `O=C1C(=Cc2ccccc2O)COCC1=Cc1ccccc1O` [EF25, 3,5-Bis(2-hyrdoxybenzylidene)tetrahydro4-H-pyran4-one], the “GI50 compared with CISPLATIN, in words” value [29, 34] was “lower GI50 than the chemotherapeutic agent CISPLATIN for several cell types”, the “LC50 compared with CISPLATIN, in words” value [29, 34] was “lower LC50 than the chemotherapeutic agent CISPLATIN for several cell types” and the GI50 ([29]; 48 hours) was 1.1 µM. The CC50 ([29]; read-out: Median Lethal Concentration (LC50), Mean, Mean over the cell line panel, 48 hours, SRB assay) was 24.2 µM and the “Cell Viability” value ([28]; 5 μM) was 12%.
